Values of other authors in US10111869B2, “Reduction of opioid blood fluctuations” (priority 2009, dated 2018).

Settings: in vivo

For `COc1ccc2c3c1O[C@H]1C(=O)CC[C@@]4(O)[C@@H](C2)N(C)CC[C@]314` [Oxycodone], the “analgesic potency relative to morphine” value is given as “about twice”.
